Data published in publication PMC2245808, “Persistence of duplicated PAC1 receptors in the teleost, Sparus auratus” (BMC Evolutionary Biology, 2007).

Columns and labels:
[1] = test system: Cos7 cell lines expressing the recombinant vector; assay: Forskolin activation of transfected Cos7 cells (cAMP); format: cell-based; conditions: Forskolin 10 mM, 1 mM and 0.1 mM
Method: (§1) Ligand binding studies were performed two days after transfections, in three independent experiments. Transfected cells were incubated in duplicate with different concentrations (10^-6 to 10^-11M) of the human VIP, PACAP38 and secretin (SCT) peptides and ovine PACAP27 peptide for 30 minutes (Sigma-Aldrich, Spain). Homologous sea bream peptides are unavailable but their predicted amino acid sequences are 82%, 100%and 92% identical to human VIP, PACAP27 and PACAP38 respectively and important amino acids at N-terminus potential involved in receptor binding are totally conserved (unpublished data). […]
(§2) The quantification of cAMP produced was determined by radioimmunoassay using the TRK432 kit (GE Healthcare, UK) following the manufacturer's instructions. […] The concentration of cAMP produced (pmol/well) was determined in duplicate for each sample and calculations performed based on a linear regression curve constructed using standard concentrations of labelled (^3H) cAMP. […] Data was analyzed by comparing the potency profile of each sbPAC1 receptor in the presence of different concentrations of test peptides and by comparing the potency profile of both receptors in the presence of identical peptide concentrations. […]

[2] = test system: Hek293 cell lines expressing the recombinant vector; assay: Forskolin activation of transfected Hek293 cells (cAMP); format: cell-based; conditions: Forskolin 10 mM, 1 mM and 0.1 mM
Method: as §1, §2

[3] = test system: sbPAC1A; assay: cAMP production in Cos7 cells expressing sbPAC1A (RIA); format: cell-based, sea bream (Sparus auratus); conditions: for LOGEC50 for cAMP production: 10^-6 to 10^-11M peptide, cAMP by radioimmunoassay (TRK432), mean ± SEM of three independent experiments in duplicate, log value with negative sign
Method: (§3) Specific primers for each sbPAC1 gene were designed to amplify the mature receptor sequence (Table 2) and were cloned into pcDNA3 vector (Invitrogen, UK) containing a signal peptide of CD33 and a T7-epitope tag (CD33-T7-pcDNA3, [66]). In order to facilitate cloning, restriction digestion sites for BglII and EcoRI enzymes were incorporated in the forward and reverse primers respectively. Template amplification was carried out using the thermocyle; 95°C for 2 minutes; 35 cycles of (95°C for 1 minute, 68°C for 1 minute and 70°C 2 minutes); 72°C for 10 minutes with a proof-reading Pfu DNA polymerase (Promega, Spain) in a 25 μl reaction volume containing 1 × PCR buffer (Promega, Spain), 1,5 mM MgCl2 (Promega, Spain), 0,2 mM dNTPs (Amersham), […] of each primer and 1,5 U Pfu DNA polymerase (3 U/μl)) and DNase Free water (Sigma-Aldrich, Spain). The amplified PCR products were cloned into pGEMT-easy vector (Promega, Spain), sequenced and subcloned into CD33-T7-pcDNA3 vector in frame with the T7-epitope tag. The recombinant constructs produced (CD33-T7-pcDNA3+sbPAC1A and CD33-T7-pcDNA3+sbPAC1B) were sequenced and used to transfect mammalian Cos7 and Hek293 cells lines. The CD86 (NM_175862) membrane protein of the immunoglobulin superfamily cloned in CD33-T7-pcDNA3 expression vector was used as positive control for cell transfection (de Vet et al., 2001).
(§4) Mammalian Cos7 and Hek293 cell lines were transfected using the Effectene transfection kit (Qiagen, Germany) and the success of transfection was assessed by western blot and immunofluorescence assays using antisera raised against the T7-epitope tag protein [66]. One day prior to transfection, approximately 60,000 to 70,000 Cos7 and Hek293 cells were seeded and transfections carried out using approximately 0.4 μg of recombinant construct (pcDNA3+sbPAC1A or B) and cells were grown for 2 days at 37°C. The viability of transfected cells was determined by dye exclusion using Trypan blue (0,4% solution, Sigma) and the success of transfection calculated by fluorescent confocal microscopy using DAPI (4',6-Diamidino-2-phenylindole) and FITC (Fluorescein) staining for Cos7 cells and the FACS (Fluorescence Activated Cell Sorting) method for Hek293 cells. The percentage of cell transfection was estimated to be approximately 30% in both cell lines.
Ligand binding studies were performed two days after transfections, in three independent experiments. Transfected cells were incubated in duplicate with different concentrations (10^-6 to 10^-11M) of the human VIP, PACAP38 and secretin (SCT) peptides and ovine PACAP27 peptide for 30 minutes (Sigma-Aldrich, Spain). Homologous sea bream peptides are unavailable but their predicted amino acid sequences are 82%, 100%and 92% identical to human VIP, PACAP27 and PACAP38 respectively and important amino acids at N-terminus potential involved in receptor binding are totally conserved (unpublished data). Prior to ligand-binding assays, Cos7 and Hek293 cells were washed 3 times with DMEM medium without fetal calf serum and incubated in a CO2 incubator with 1 mM of IBMX (3-Isobutyl-1-Methylxantine) for 30 minutes. Ligand-binding assays were performed by incubating the cells in fresh medium containing the peptides in the presence of 1 mM IBMX for 30 minutes at 37°C in the CO2 incubator. After incubation, cells were lysed and stored at -80°C until required. Mammalian Cos7 and Hek293 cells transfected with wild type pcDNA3 were used as negative controls which were incubated with the highest tested peptide concentration ([…]). Prior to assays the responsiveness of transfected Cos7 and Hek293 cells was tested by stimulating cAMP production using Forskolin ([…]; Sigma-Aldrich).
The quantification of cAMP produced was determined by radioimmunoassay using the TRK432 kit (GE Healthcare, UK) following the manufacturer's instructions. Cos7 and Hek293 cells were lysed by sonication, centrifuged and the supernatant heat denatured for 10 minutes at 100°C. […]

[4] = test system: sbPAC1B; assay: cAMP production in Cos7 cells expressing sbPAC1B (RIA); format: cell-based, sea bream (Sparus auratus); conditions: for LOGEC50 for maximal cAMP production: 10^-6 to 10^-11M peptide, cAMP by radioimmunoassay (TRK432), mean ± SEM of three independent experiments in duplicate, log value with negative sign
Method: as §3, §4
Ligand binding studies were performed two days after transfections, in three independent experiments. Transfected cells were incubated in duplicate with different concentrations (10^-6 to 10^-11M) of the human VIP, PACAP38 and secretin (SCT) peptides and ovine PACAP27 peptide for 30 minutes (Sigma-Aldrich, Spain). […]
The quantification of cAMP produced was determined by radioimmunoassay using the TRK432 kit (GE Healthcare, UK) following the manufacturer's instructions. […]

[5] = test system: pituitary cells; conditions: compared to GHRH and GnRH for PACAP38; ref [46],[51],[52]; cited from earlier work
From the text: (§5) An intriguing aspect about the sbPAC1 genes is their divergent tissue distribution and this may be the basis of their specific physiological functions and persistence in the genome. Understanding the biological function of receptors is complex as it is not only the availability and concentration of receptors but also of ligands and accessory factors at a given site which will determine receptor preference/activity and ultimately biological function.

[6] = test system: endogenous receptors in Hek293; assay: Negative control: Hek293 cells transfected with pcDNA3 without insert; format: cell-based; conditions: maximum concentration of test peptide (10^-6 M)
From the text: The sbPAC1A and sbPAC1B were successfully expressed in Cos7 and Hek293 cell lines as confirmed by immunofluorescence and Western blot analysis. Cos7 cell extracts subject to Western blot contained a specific immunoreactive fusion protein of approximately 52 kDa in transfected cells, which corresponds to the estimated molecular weight in silico of the fusion proteins, (T7PAC1A is 52.75 kDa and T7PAC1B is 52.32 kDa). […] For this reason only the results obtained with transfected Cos7 cells are presented.
Ligand binding studies were performed two days after transfections, in three independent experiments. […]
as §2

[7] = test system: PAC1; conditions: human PAC1; ref [18],[19]; cited from earlier work
From the text: In vertebrates, activation of PAC1/VPAC receptors occurs via three intracellular transduction mechanisms. These involve either cyclic AMP (cAMP) production, IP turnover via PLC or/and calcium mobilization as a consequence of the activation of a G-protein complex. In mammals, five PAC1 isoforms, which result from the insertion of one or two, 28 (hip or hop1 variant) or ...

[8] = test system: gastric and pancreatic secretion; conditions: cod; ref [55],[56]; cited from earlier work
From the text: as §5

[9] = test system: intestine; conditions: tilapia; ref [57]; cited from earlier work
From the text: as §5

[10] = transfected Cos7 cells, 30 minutes, 37°C, 1 mM IBMX

## C=C[C@@]1(C)CC(=O)[C@]2(O)[C@@]3(C)[C@@H](O)CCC(C)(C)[C@@H]3[C@H](O)[C@H](OC(C)=O)[C@@]2(C)O1 [Forskolin]
[1]
  cAMP production with Forskolin: maximal cAMP production
[2]
  cAMP production with Forskolin: maximal cAMP production

## Pituitary Adenylate Cyclase-Activating Polypeptide [PACAP27]
[3]; sbPAC1A vs sbPAC1B, P > 0.05
  stimulation of sbPAC1A compared to sbPAC1B (LOGEC50 values for maximal cAMP production): equally stimulated

## Pituitary Adenylate Cyclase-Activating Polypeptide [PACAP38]
[3]; [10]
  LOGEC50 for cAMP production: -8.54 ± 0.18 M
[4]; [10]
  LOGEC50 for maximal cAMP production: -8.92 ± 0.24 M
[5]
  effect on fish GH secretion by pituitary cells: more potent stimulatory effect on fish GH secretion by pituitary cells when compared to GHRH and GnRH

## Pituitary Adenylate Cyclase-Activating Polypeptide [PACAP]
[6]
  responsiveness of Hek293 cells transfected with pcDNA3 without insert: responsive
[7]
  binding preference of PAC1: preferentially binds PACAP

## Vasoactive Intestinal Peptide [VIP]
[3]; LOGEC50 comparison of sbPAC1A vs sbPAC1B, P < 0.05
  potency for sbPAC1A compared to sbPAC1B: significantly more potent for sbPAC1A
[3]; [10]
  LOGEC50 for cAMP production: -7.23 ± 0.20 M
[3]; two way Anova, Holm-Sidak, transfected Cos7 cells, P < 0.05
  stimulation of cAMP production compared with PACAP peptides: significantly lower (P < 0.05) than for PACAP peptides
[4]; [10]
  LOGEC50 for maximal cAMP production: -6.57 ± 0.14 M
[4]; two way Anova, Holm-Sidak, transfected Cos7 cells, P < 0.001
  stimulation of cAMP compared with PACAP27 and PACAP38: significantly lower than PACAP27 and PACAP38 (P < 0.001)
[6]
  responsiveness of Hek293 cells transfected with pcDNA3 without insert: responsive
[8]
  effect on gastric and pancreatic secretion: stimulates gastric and pancreatic secretion
[9]
  effect on ion and water absorption by the intestine: involved in ion and water absorption by the intestine
[5]
  effect on fish GH secretion by pituitary cells: little or no effect on GH release

## secretin [SCT]
[3]; human SCT, Cos7 cells transformed with sbPAC1A, 30 minutes, 37°C, 1 mM IBMX, data not shown
  increase above the basal concentration of cAMP production: negligible increase
[4]; human SCT, Cos7 cells transformed with sbPAC1B, 30 minutes, 37°C, 1 mM IBMX, data not shown
  increase above the basal concentration of cAMP production: negligible increase
